Where a name gives a salt, the structure may show the parent alone. Read-outs that look alike come from different tables or passages of the source.
What was measured:
[1] = tested on: YAP/TAZ; assay: YAP/TAZ nuclear localization (immunofluorescence, automated imaging) in IPF patient-derived lung fibroblasts; format: cell-based, human; settings: 10 μM, treated 2 hours prior to fixation; for Nuclear localization (% of total cells) IPF-1: patient sample IPF-1; for Nuclear localization (% of total cells) IPF-2: patient sample IPF-2; for Nuclear localization (% of total cells) IPF-3: patient sample IPF-3; for Nuclear localization (% of total cells) IPF-4: patient sample IPF-4
Method: 27A. […] IPF patient-derived lung fibroblasts cells treated 2 hours prior to fixation with diverse dopaminergic agonists (10 μM). N=4 different patient samples. % nuclear localization of YAP/TAZ was determined using automated imaging software. Scale bar represents 100 μm. 27C. cAMP measured in IPF patient-derived fibroblasts treated for 20 minutes with DHX. N=3. 27E.
(§1) ImmunofluorescenceMicroscopy: Cells were plated into 96 well plates (Corning 3603) in their specific growth media and allowed to attach (8 hours). Media was then exchanged for the indicated conditions for each experiment. Cells were fixed in 3.7% formalin (Sigma-Aldrich), permeabilized in 0.25% Triton X-100 (Sigma-Aldrich) and then blocked with 1% BSA for 1 h. Cells or tissue sections were incubated overnight with mouse monoclonal antibody against αSMA (Sigma-Aldrich F3777), and/or a rabbit monoclonal antibody against YAP/TAZ (Cell Signaling D24E4) diluted 1:200 in PBS with 1% BSA. Cells were then washed and exposed to flourescence-conjugated secondary antibodies (Invitrogen) diluted 1:1000 and DAPI (Thermo Fisher Scientific). Images were taken with a Cytation5 (BioTek) microscope. For scoring αSMA positive cells (FIG. 3b), an observer blinded to the treatment conditions counted αSMA-positive cells using a visual threshold for bright fibrous staining; a minimum of 200 cells was counted for each condition. YAP/TAZ localization was quantified (FIG. 2, 6, 8) using Gen5 (Biotek) software. Images were taken at 4× magnification of both DAPI and YAP/TAZ staining. […] Quantification of double positive (YAP/TAZ and αSMA) cells from lung tissue sections (FIG. 4d) was performed similarly; however separate thresholds were established for both YAP/TAZ and αSMA. A minimum of 4000 cells was quantified for each mouse.

[2] = tested on: αSMA; assay: αSMA intensity (fibroblast activation) in IPF patient-derived lung fibroblasts + TGFβ; format: cell-based, human; settings: 1 μM + TGFβ, treated for 72 hours; for activity at 1 µM: Homo sapiens, SMA
Method: as §1

[3] = patient sample IPF-1, read-out: αSMA intensity (% of DMSO control) IPF-1
[4] = patient sample IPF-2, read-out: αSMA intensity (% of DMSO control) IPF-2
[5] = patient sample IPF-3, read-out: αSMA intensity (% of DMSO control) IPF-3
[6] = patient sample IPF-4, read-out: αSMA intensity (% of DMSO control) IPF-4

Row | SMILES | Nuclear localization (% of total cells) IPF-1 [1] | Nuclear localization (% of total cells) IPF-2 [1] | Nuclear localization (% of total cells) IPF-3 [1] | Nuclear localization (% of total cells) IPF-4 [1] | αSMA intensity (% of DMSO control) IPF-1 ([2]; patient sample IPF-1) | αSMA intensity (% of DMSO control) IPF-2 ([2]; patient sample IPF-2) | αSMA intensity (% of DMSO control) IPF-3 ([2]; patient sample IPF-3) | αSMA intensity (% of DMSO control) IPF-4 ([2]; patient sample IPF-4) | activity at 1 µM [2, 3] [%] | activity at 1 µM [2, 4] [%] | activity at 1 µM [2, 5] [%] | activity at 1 µM [2, 6] [%]
1 | CCCN(CCc1ccccc1)C1CCc2c(O)cccc2C1.Cl (racemic) [(±)-2-(N-phenylethyl-N-propyl)amino-5-hydroxytetralin] | 68.85 % of total cells | 60.86 % of total cells | 68 % of total cells | 56.552 % of total cells | 65.43 % of DMSO control | 52.77 % of DMSO control | 60.4844 % of DMSO control | 51.1 % of DMSO control | – | – | – | –
2 | CCCN1CCO[C@@H]2c3cc(O)ccc3OC[C@H]21.Cl (racemic) [(±)-PD 128,907•HCl] | 60.13 % of total cells | 49.54 % of total cells | 78.48 % of total cells | 60.66 % of total cells | 83.68 % of DMSO control | 85.45 % of DMSO control | 94.2538 % of DMSO control | 75.15 % of DMSO control | – | – | – | –
3 | C=CCN1CCc2c(cc(O)c(O)c2Cl)C(c2ccccc2)C1 (racemic) [(±)-SKF-82958•HBr] | 29.15 % of total cells | 38 % of total cells | 38 % of total cells | 12.29 % of total cells | – | – | – | – | 11.8 | 4.97 | 2.43 | 9.33
4 | NCCc1ccc(O)cc1 [4-Hydroxyphenethylamine•HCl, 4-Hydroxyphenethylamine] | – | – | – | – | – | – | – | – | 99.7 | 93.4 | 95.7 | 88.3
5 | CC(C)C[C@H]1C(=O)N2CCC[C@H]2[C@]2(O)O[C@](NC(=O)[C@@H]3C=C4c5cccc6[nH]c(Br)c(c56)C[C@H]4N(C)C3)(C(C)C)C(=O)N12 [Bromocriptine mesylate, Bromocriptine] | – | – | – | – | – | – | – | – | 54.1 | 53.6 | 61.1 | 34.1
6 | C=CCN1C[C@H](C(=O)N(CCCN(C)C)C(=O)NCC)C[C@@H]2c3cccc4[nH]cc(c34)C[C@H]21 [Cabergoline] | – | – | – | – | – | – | – | – | 76.9 | 48.1 | 77.1 | 45.8
7 | CN1C[C@@H](NS(=O)(=O)N(C)C)C[C@@H]2c3cccc4c3c(cn4C)C[C@H]21 [Mesulergine•HCl, Mesulergine] | – | – | – | – | – | – | – | – | 35.5 | 23.3 | 40 | 19.8
8 | CCCN1C[C@H](CSC)C[C@@H]2c3cccc4[nH]cc(c34)C[C@H]21 [Pergolide mesylate, Pergolide] | – | – | – | – | – | – | – | – | 65 | 51.6 | 63.6 | 48.1
9 | c1cnc(N2CCN(Cc3ccc4c(c3)OCO4)CC2)nc1 [Piribedil•2HCl, Piribedil] | – | – | – | – | – | – | – | – | 70.4 | 61.5 | 71.5 | 41.2
10 | CCCN[C@H]1CCc2nc(N)sc2C1 [Pramipexole Dihydrochloride Monohydrate, Pramipexole] | – | – | – | – | – | – | – | – | 87.6 | 73.2 | 82.8 | 89.9
11 | CCCN(CCC)CCc1cccc2c1CC(=O)N2 [Ropinirole HCl, Ropinirole] | – | – | – | – | – | – | – | – | 72.2 | 53.5 | – | 62
12 | Oc1cc2c(cc1O)[C@@H](c1ccccc1)CNCC2 [SKF 38393•HBr] | – | – | – | – | – | – | – | – | 37.1 | 26.8 | 31.2 | 20.8

From patent US20240252463A1, “METHODS OF TREATING FIBROTIC PATHOLOGIES” (Mayo Foundation for Medical Education and Research, priority 2018, published 2024)
